Results from patent publication US20160175802A1, “METHOD FOR MAKING A GAS FROM AN AQUEOUS FLUID,PRODUCT OF THE METHOD, AND APPARATUS THERFOR” (priority 2007, published 2016).

Legend:
[1] = Total Dissolved Solids after infusion; format: physicochemical; details: after infusion of SG Gas into distilled water for approximately 11 minutes (start 0.33 ppm)
Source text: The resulting ionized or polarized water (“SG Gas-infused Water”) clings longer to a magnet when compared to that of regular water. Absorption over time or saturation graphs to monitor changes in the water properties infused with SG Gas including capacitance levels may be prepared. […] Other measurement: Total Dissolved Solids (TDS) dropped from a start of 0.33 ppm in untreated distilled water to a finish of 0.17 ppm after infusion of SG Gas into distilled water for a period of approximately 11 minutes. A Fluke 189True RMS Multimeter was used to measure drop in capacitance.

[2] = Storage of SG Gas in water; format: physicochemical; details: polarized water with SG Gas treatment
Source text: Storage of SG Gas in Water: The resulting polarized water with SG Gas treatment remains stable and can be stored for 2 years or more. The actual maximum storage time has yet to be observed but in theory, SG Gas should remain permanently stable in the water.

goldfish = assay: Fish growth in home aquariums; format: in vivo; details: SG Gas bubbled into aquarium for thirty days vs air
Source text: Fish Growth: Two home aquariums were used to hold two respective groups of goldfish. SG Gas was bubbled into one aquarium and the second with air for a period of thirty days.

SG Gas under pressure = format: physicochemical
Source text: In an exemplary procedure for compression, SG Gas is discharged from the apparatus into a hose with a compressor attached. We use a Whirlwind Compressor, Model 2200-2 HPE, manufactured by High Pressure Eng. Co. Inc. A canister with pressure gauges is used to fill the chamber with SG Gas, using a hose to transport the SG Gas from the apparatus and compressor into the canister. We use an empty oxygen tank that has been vacuumed to remove any residual oxygen and water. The empty and vacuumed oxygen tank with pressure valve has a manufacturer name of White Martins, ABRE with dimensions of 23″ diameter and 19″ height. SG Gas is placed under pressure in the compression chamber up to and beyond 1,000 psi. for storage of SG Gas.
Analytical Testing and Observations of SG Gas Under pressure Maximum Pressure: SG Gas imploded when pressures exceeded 1,600 psi.
Safe Pressurization: SG Gas remains safe and stable at pressures around 1,000 psi for over 30 days. SG Gas should remain stable under pressure indefinitely, at least for a sufficient period of time to allow said gas to be utilized at time 30-60 days after generation.

pH test = format: physicochemical; details: distilled water infused with SG Gas (distilled water pH 6.8)

Total Dissolved Solids (TDS) [1]: 0.17 ppm | storage time over which water remains stable [2]: ≥ 2 years | Maximum Pressure: pressure above which SG Gas imploded (SG Gas under pressure): exceeded 1,600 psi | time safe and stable under pressure (SG Gas under pressure; pressures around 1,000 psi): over 30 days | pH (pH test): 7.6
Substance: hydroxyhydrogen [SG Gas]
algae growth in aquarium tank (goldfish): less algae growth | growth of goldfish compared with air-aerated aquarium (goldfish): at least 15%
